Measured values published in the OPERA property sets (Mansouri et al. 2018).

Row | SMILES | logP
1 | CC(C)OC(=O)c1cc(OC(=O)N2CCCC2)c(F)cc1Cl | 4.22
2 | CC(C)OC(=O)c1cc(OC(=O)N2CCCC2)c(Cl)cc1Cl | 4.67
3 | O=C(Oc1ccccc1)N1CCCC1 | 2.73
4 | COC(=O)c1cc(Sc2ccc(C(F)(F)F)cc2Cl)ccc1[N+](=O)[O-] | 4.76
5 | O=[N+]([O-])c1ccc(Oc2ccc(C(F)(F)F)cc2Cl)cc1Oc1ccoc1 | 4.33
6 | Nc1c([N+](=O)[O-])ccc(Oc2ccccc2)c1Cl | 4.04
7 | Cc1cccc(Oc2ccc([N+](=O)[O-])cc2)c1 | 4.4
8 | CCOC(=O)C(C)OC(=O)c1cc(Oc2ccc(C(F)(F)F)cc2Cl)ccc1[N+](=O)[O-] (stereo unspecified) | 4.81
9 | O=C(Oc1cc(O)c(Cl)cc1Cl)N1CCCC1 | 2.98
10 | COC(=O)CON=C(C)c1cc(Oc2ccc(C(F)(F)F)cc2Cl)ccc1[N+](=O)[O-] | 4.54
11 | C#CCOc1cc(OC(=O)N(CC)CC)c(Cl)cc1Cl | 3.95
12 | C#CCOc1cc(OC(=O)N2CCCC2)c(Cl)cc1Cl | 3.82
13 | COC(=O)c1cc(Oc2ccc(C(F)(F)F)cc2Cl)ccc1[N+](=O)[O-] | 4.26
14 | C#CCOC1=Nc2cc(OC(=O)N3CCCC3)c(Cl)cc2OC1 | 2.93
15 | C=COC(=O)C(C)Oc1cc(Oc2ccc(C(F)(F)F)cc2Cl)ccc1[N+](=O)[O-] (stereo unspecified) | 4.54
16 | C#CCOc1cc(OC(=O)N2CCCCC2)c(Cl)cc1Cl | 4.25

Row | SMILES | logP
17 | COC(=O)c1cc(S(=O)(=O)c2ccc(C(F)(F)F)cc2Cl)ccc1[N+](=O)[O-] | 3.57
18 | COC(=O)c1cc(Oc2cc(C(F)(F)F)ccc2Cl)ccc1[N+](=O)[O-] | 4.21
19 | COC(=O)c1cc(OC(=O)N2CCCC2)c(Cl)cc1Cl | 3.95
20 | COC(=O)c1cc(S(=O)c2ccc(C(F)(F)F)cc2Cl)ccc1[N+](=O)[O-] (stereo unspecified) | 3.65
21 | CCOC(=O)C(C)Oc1cc(Oc2ccc(C(F)(F)F)cc2Cl)ccc1[N+](=O)[O-] (stereo unspecified) | 4.53
22 | O=C(Oc1ccccc1Cl)N1CCCC1 | 3.13
23 | O=C(Oc1ccc(Cl)cc1)N1CCCC1 | 3.38
24 | C#CCOc1cc(OC(=O)N2CCC(F)(F)C2)c(Cl)cc1Cl | 3.42
25 | CCOc1cc(Oc2ccc(C(F)(F)F)cc2Cl)ccc1[N+](=O)[O-] | 4.73
26 | O=[N+]([O-])c1ccc(Oc2ccc(C(F)(F)F)cc2Cl)cc1 | 4.54
27 | O=C(O)COC(=O)c1cc(Oc2ccc(C(F)(F)F)cc2Cl)ccc1[N+](=O)[O-] | 4.27
28 | COC(=O)c1cc(Oc2ccc(C(F)(F)F)cc2Cl)ccc1Cl | 5.04
29 | O=[N+]([O-])c1ccc(Oc2ccccc2)cc1 | 3.92
30 | C#CCOc1cc(OC(=O)N2CCC(F)(F)CC2)c(Cl)cc1Cl | 3.57
31 | O=C(Oc1ccc(Cl)cc1Cl)N1CCCC1 | 3.94
